According to patent publication US20230265116A1, “DEGRADATION OF (EGFR) BY CONJUGATION OF EGFR INHIBITORS WITH E3 LIGASE LIGAND AND METHODS OF USE” (BEIGENE, LTD., priority 2020, published 2023):
Where two headings read alike, the source gives them in different places.

Assays:
[1] = target: T1, EGFR L858R/T790M/C797S (BaF3-LTC cells) (Homo sapiens, UniProt P00533, C797S/L858R/T790M); assay: EGFR degradation HTRF assay, BaF3-LTC cells; format: cell-based
T1 construct: expressed in transfected cells; host or cells: BaF3
T1 sequence (P00533 25-1210 T790M/C797S/L858R): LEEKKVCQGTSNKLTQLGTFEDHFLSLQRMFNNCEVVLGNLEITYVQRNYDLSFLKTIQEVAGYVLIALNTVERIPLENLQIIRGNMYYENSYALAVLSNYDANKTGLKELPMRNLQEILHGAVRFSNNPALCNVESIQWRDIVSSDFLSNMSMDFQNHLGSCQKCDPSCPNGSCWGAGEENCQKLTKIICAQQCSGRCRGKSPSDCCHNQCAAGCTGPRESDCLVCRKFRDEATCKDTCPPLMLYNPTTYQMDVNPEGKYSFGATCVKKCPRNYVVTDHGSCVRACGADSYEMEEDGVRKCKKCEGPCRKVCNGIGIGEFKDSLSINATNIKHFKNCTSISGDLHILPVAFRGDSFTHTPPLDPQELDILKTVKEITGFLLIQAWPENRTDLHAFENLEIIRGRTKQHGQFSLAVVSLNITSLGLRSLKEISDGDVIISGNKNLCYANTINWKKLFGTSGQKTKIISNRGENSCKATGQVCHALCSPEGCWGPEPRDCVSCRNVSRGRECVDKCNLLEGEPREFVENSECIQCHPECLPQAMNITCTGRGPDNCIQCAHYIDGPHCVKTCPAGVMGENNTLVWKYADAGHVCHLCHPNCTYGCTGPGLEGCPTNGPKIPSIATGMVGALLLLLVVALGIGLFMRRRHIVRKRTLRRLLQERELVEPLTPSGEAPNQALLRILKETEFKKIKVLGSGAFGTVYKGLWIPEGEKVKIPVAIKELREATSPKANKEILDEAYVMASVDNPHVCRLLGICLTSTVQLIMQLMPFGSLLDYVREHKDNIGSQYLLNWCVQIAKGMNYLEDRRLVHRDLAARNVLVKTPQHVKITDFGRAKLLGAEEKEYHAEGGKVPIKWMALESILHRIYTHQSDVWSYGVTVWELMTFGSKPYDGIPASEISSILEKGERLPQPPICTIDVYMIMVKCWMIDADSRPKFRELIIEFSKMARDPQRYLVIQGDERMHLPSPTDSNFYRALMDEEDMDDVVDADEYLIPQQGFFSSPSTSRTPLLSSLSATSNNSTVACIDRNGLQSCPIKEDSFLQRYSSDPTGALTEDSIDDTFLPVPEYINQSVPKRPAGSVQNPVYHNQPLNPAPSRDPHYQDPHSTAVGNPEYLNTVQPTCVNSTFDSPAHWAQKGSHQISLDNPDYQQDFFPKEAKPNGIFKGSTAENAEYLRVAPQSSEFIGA
Protocol: (§1) BaF3 WT(wild type), BaF3-LTC(L858R/T790M/C797S) and BaF3-DTC(Del19/T790M/C797S) cells are treated with compounds diluted in 0.2% DMSO cell culture medium and incubate for 16h, 37° C., 5% CO2, H1975-#36, H1975-#28, H1975-#23 and HCC827 cells are treated with compounds diluted in 0.2% DMSO cell culture medium on day 2, incubate for 16h, 37° C., 5% CO2.the final concentriation of compounds in all assay is start with 10 uM, 5-fold dilution, total 8 doses were included.
(§2) After 16h treatment, add HTRF lysis buffer to each well; seal the plate and incubate 1 hour at room temperature on a plate shaker; Once the cells are lysed, 16 μL of cell lysate are transferred to a PE 384-well HTRF detection plate; 4 μL of pre-mixed HTRF antibodies are added to each well; Cover the plate with a plate sealer, spin 1000 rpm for 1 min, Incubate overnight at room temperature; Read on BMG PheraStar with HTRF protocol (337 nm-665 nm-620 nm).
(§3) The inhibition (degradation) percentage of the compound was calculated by the following equation: Inhibition percentage of Compound=100-100×(Signal-low control)/(High control-low control), wherein signal=each test compound group
(§4) High control=Cell group with added DMSO and without compound, indicating microplate readings without EGFR degradation;
(§5) Dmax is the maximum percentage of inhibition (degradation).
(§6) The IC50 (DC50) value of a compound can be obtained by fitting the following equation
(§7) Y=Bottom+(TOP−Bottom)/(1+((IC50/X)^hillslope))
(§8) Wherein, X and Y are known values, and IC50, Hillslope, Top and Bottom are the parameters obtained by fitting with software. Y is the inhibition percentage (calculated from the equation), X is the concentration of the compound; IC50 is the concentration of the compound when the 50% inhibition is reached. The smaller the IC50 value is, the stronger the inhibitory ability of the compound is. Vice versa, the higher the IC50 value is, the weaker the inhibitory ability of the compound is; Hillslope represents the slope of the fitted curve, generally around 1*; Bottom represents the minimum value of the curve obtained by data fitting, which is generally 0%±20%; Top represents the maximum value of the curve obtained by data fitting, which is generally 100%±20%. The experimental data were fitted by calculating and analyzing with Dotmatics data analysis software.

[2] = system: EGFR Del19/T790M/C797S (H1975-clone #28); assay: EGFR degradation HTRF assay, H1975-clone #28 DTC cells; format: cell-based
Protocol: H1975-clone #28(Del19/T790M/C797S) and H1975-clone #23(Del19/C797S). EGFR-Del19/T790M/C797S and EGFR-Del19/C797S were stably expressed in H1975 cell lines by lentivirus-mediated over-expression, respectively. The EGFR over-expressed cells then underwent gene knockout, in which the EGFR targeting sgRNA was designed to only target the endogenous EGFR copies and preserve the exogenous EGFR copies. Followed by the gene knockout, the edited H1975 cells were seeded in 96 well plates at the concentration of 1 cell/well, cultured for about 2 weeks to allow single clones formation. The formed clones were screened by DNA sequencing and whole exon sequencing analysis for the desired edition. H1975-clone #28 and H1975-clone #23 were finally confirmed as homozygous Del19/T790M/C797S EGFR and Del19/C797S EGFR clones, respectively.
as §1, §2, §3, §4, §5, §6, §7, §8

[3] = BaF3-LTC cells; EGFR degradation, IC50 (DC50) from curve fit; read-out: DC50(nM) BaF3-LTC
[4] = BaF3-LTC cells; maximum percentage of inhibition (degradation); read-out: Dmax (%) BaF3-LTC
[5] = H1975 # 28 DTC cells; EGFR degradation, IC50 (DC50) from curve fit; read-out: DC50(nM) H1975 # 28 DTC
[6] = H1975 # 28 DTC cells; maximum percentage of inhibition (degradation)

Row | Structure (SMILES) | DC50 [1, 3] [nM] | Dmax [1, 4] [%] | DC50 [2, 5] [nM] | Dmax (%) H1975 # 28 DTC [2, 6] [%] | DC50 ([1]; read-out: DC50(nM) BaF3-LTC; BaF3-LTC cells; EGFR degradation, IC50 (DC50) from curve fit) [nM] | Dmax ([1]; read-out: Dmax (%) BaF3-LTC, BaF3-LTC cells; maximum percentage of inhibition (degradation)) [%] | DC50 ([2]; read-out: DC50(nM) H1975 # 28 DTC; H1975 # 28 DTC cells; EGFR degradation, IC50 (DC50) from curve fit) [nM]
1 | CCc1ncc2c(P(C)(C)=O)c(Nc3nc(Nc4cc(C)c(N5CCC(N6CCN(CCc7cc(F)c([C@H]8CCC(=O)NC8=O)c(F)c7)CC6)CC5)cc4OC)ncc3Br)ccc2n1 [Example 748, (R)-3-(4-(2-(4-(1-(4-((5-bromo-4-((5-(dimethylphosphoryl)-2-ethylquinazolin-6-yl)amino)pyrimidin-2-yl)amino)-5-methoxy-2-methylphenyl)piperidin-4-yl)piperazin-1-yl)ethyl)-2,6-difluorophenyl)piperidine-2,6-dione] | 5.75 |  | 0.455 | 91.78 |  |  | 
2 | CCOc1cc(N2CCC(N3CCN(C(=O)CN4CCN(c5cc(F)c([C@H]6CCC(=O)NC6=O)c(F)c5)CC4)CC3)CC2)c(CC)cc1Nc1ncc(Br)c(Nc2ccc3c(=O)n(CC)ncc3c2P(C)(C)=O)n1 [Example 639, (R)-3-(4-(4-(2-(4-(1-(4-((5-bromo-4-((5-(dimethylphosphoryl)-2-ethyl-1-oxo-1,2-dihydrophthalazin-6-yl)amino)pyrimidin-2-yl)amino)-5-ethoxy-2-ethylphenyl)piperidin-4-yl)piperazin-1-yl)-2-oxoethyl)piperazin-1-yl)-2,6-difluorophenyl)piperidine-2,6-dione] | 4.06 | 94.3 | 0.71 | 86.93 |  |  | 
3 | CCOc1cc(N2CCC(N3CCN(CCC4CCN(c5ccc6c(oc(=O)n6C6CCC(=O)NC6=O)c5F)CC4)CC3)CC2)c(CC)cc1Nc1ncc(Br)c(Nc2ccc3nc(CC)ncc3c2P(C)(C)=O)n1 (stereo not shown) [Example 612, 3-(6-(4-(2-(4-(1-(4-((5-bromo-4-((5-(dimethylphosphoryl)-2-ethylquinazolin-6-yl)amino)pyrimidin-2-yl)amino)-5-ethoxy-2-ethylphenyl)piperidin-4-yl)piperazin-1-yl)ethyl)piperidin-1-yl)-7-fluoro-2-oxobenzo[d]oxazol-3(2H)-yl)piperidine-2,6-dione] |  |  |  | 72.14 | 7.68 | 93.2 | 0.656
4 | CCOc1cc(N2CCC(N3CCN(CCc4cc(F)c([C@H]5CCC(=O)NC5=O)c(F)c4)CC3)CC2)c(CC)cc1Nc1ncc(Br)c(Nc2ccc3c(=O)n(CC)ncc3c2P(C)(C)=O)n1 [Example 679, (R)-3-(4-(2-(4-(1-(4-((5-bromo-4-((5-(dimethylphosphoryl)-2-ethyl-1-oxo-1,2-dihydrophthalazin-6-yl)amino)pyrimidin-2-yl)amino)-5-ethoxy-2-ethylphenyl)piperidin-4-yl)piperazin-1-yl)ethyl)-2,6-difluorophenyl)piperidine-2,6-dione] | 22.6 | 93.3 | 1.75 | 83.46 |  |  | 
5 | CCc1cc(Nc2ncc(Br)c(Nc3ccc4nc(C#N)ccc4c3P(C)(C)=O)n2)c(OC)cc1N1CCC(N2CCN(C(=O)[C@@H]3CCN(c4cc(F)c([C@H]5CCC(=O)NC5=O)c(F)c4)C3)CC2)CC1 [Example 674, 6-((5-bromo-2-((4-(4-(4-((R)-1-(4-((R)-2,6-dioxopiperidin-3-yl)-3,5-difluorophenyl)pyrrolidine-3-carbonyl)piperazin-1-yl)piperidin-1-yl)-5-ethyl-2-methoxyphenyl)amino)pyrimidin-4-yl)amino)-5-(dimethylphosphoryl)quinoline-2-carbonitrile] | 9.62 | 94.6 | 2.19 | 69.95 |  |  | 
6 | CCc1cc(Nc2ncc(Br)c(Nc3ccc4nc(C)ccc4c3P(C)(C)=O)n2)c(OC2CC2)cc1N1CCC(N2CCN(CCc3cc(F)c([C@H]4CCC(=O)NC4=O)c(F)c3)CC2)CC1 [Example 459, (R)-3-(4-(2-(4-(1-(4-((5-bromo-4-((5-(dimethylphosphoryl)-2-methylquinolin-6-yl)amino)pyrimidin-2-yl)amino)-5-cyclopropoxy-2-ethylphenyl)piperidin-4-yl)piperazin-1-yl)ethyl)-2,6-difluorophenyl)piperidine-2,6-dione] |  |  | 0.851 | 86.08 |  |  | 

More lines, main results first:

Row | DC50 [1, 3] [nM] | Dmax [1, 4] [%] | DC50 [2, 5] [nM] | Structure (SMILES) | Dmax (%) H1975 # 28 DTC [2, 6] [%] | DC50 ([1]; read-out: DC50(nM) BaF3-LTC; BaF3-LTC cells; EGFR degradation, IC50 (DC50) from curve fit) [nM] | Dmax ([1]; read-out: Dmax (%) BaF3-LTC, BaF3-LTC cells; maximum percentage of inhibition (degradation)) [%] | DC50 ([2]; read-out: DC50(nM) H1975 # 28 DTC; H1975 # 28 DTC cells; EGFR degradation, IC50 (DC50) from curve fit) [nM]
7 | 15.1 | 90.8 | 2.03 | CCOc1cc(N2CCC(N3CCN(C(=O)C4CN(c5cc(F)cc6c5n(C)c(=O)n6C5CCC(=O)NC5=O)C4)CC3)CC2)c(CC)cc1Nc1ncc(Br)c(Nc2ccc3nc(CC)ccc3c2P(C)(C)=O)n1 (stereo not shown) [Example 466, 3-(4-(3-(4-(1-(4-((5-bromo-4-((5-(dimethylphosphoryl)-2-ethylquinolin-6-yl)amino)pyrimidin-2-yl)amino)-5-ethoxy-2-ethylphenyl)piperidin-4-yl)piperazine-1-carbonyl)azetidin-1-yl)-6-fluoro-3-methyl-2-oxo-2,3-dihydro-1H-benzo[d]imidazol-1-yl)piperidine-2,6-dione] | 72.67 |  |  | 
8 | 10.3 | 89.5 | 1.68 | CCOc1cc(N2CCC(N3CCN(C[C@H]4CCN(c5cccc6c5oc(=O)n6C5CCC(=O)NC5=O)C4)CC3)CC2)c(CC)cc1Nc1ncc(Br)c(Nc2ccc3nc(CC)ccc3c2P(C)(C)=O)n1 (stereo partly drawn) [Example 561, 3-(7-((R)-3-((4-(1-(4-((5-bromo-4-((5-(dimethylphosphoryl)-2-ethylquinolin-6-yl)amino)pyrimidin-2-yl)amino)-5-ethoxy-2-ethylphenyl)piperidin-4-yl)piperazin-1-yl)methyl)pyrrolidin-1-yl)-2-oxobenzo[d]oxazol-3(2H)-yl)piperidine-2,6-dione] | 77.5 |  |  | 
9 | 19.8 |  | 2.91 | CCOc1cc(N2CCC(N3CCN(C(=O)[C@H]4CN(c5cc(F)c([C@H]6CCC(=O)NC6=O)c(F)c5)CC4(C)C)CC3)CC2)c(CC)cc1Nc1ncc(Br)c(Nc2ccc3nc(C)ccc3c2P(C)(C)=O)n1 [Example 747, (R)-3-(4-((R)-4-(4-(1-(4-((5-bromo-4-((5-(dimethylphosphoryl)-2-methylquinolin-6-yl)amino)pyrimidin-2-yl)amino)-5-ethoxy-2-ethylphenyl)piperidin-4-yl)piperazine-1-carbonyl)-3,3-dimethylpyrrolidin-1-yl)-2,6-difluorophenyl)piperidine-2,6-dione] | 76.51 |  |  | 
10 | 9.65 | 94.1 | 1.19 | CCc1cc(Nc2ncc(Br)c(Nc3ccc4nc(C)ccc4c3P(C)(C)=O)n2)c(OC)cc1N1CCC(N2CCN(C(=O)Cc3cccc4c3n(C)c(=O)n4C3CCC(=O)NC3=O)CC2)CC1 (stereo not shown) [Example 697, 3-(4-(2-(4-(1-(4-((5-bromo-4-((5-(dimethylphosphoryl)-2-methylquinolin-6-yl)amino)pyrimidin-2-yl)amino)-2-ethyl-5-methoxyphenyl)piperidin-4-yl)piperazin-1-yl)-2-oxoethyl)-3-methyl-2-oxo-2,3-dihydro-1H-benzo[d]imidazol-1-yl)piperidine-2,6-dione] | 71.39 |  |  | 
11 |  | 86.5 |  | CCc1cc(Nc2ncc(Br)c(Nc3ccc4nc(C)ccc4c3P(C)(C)=O)n2)c(OC)cc1N1CCC(N2CCN(C(=O)[C@@H]3CCN(c4ccc([C@H]5CCC(=O)NC5=O)cc4)C3)CC2)CC1 [Example 569, (R)-3-(4-((R)-3-(4-(1-(4-((5-bromo-4-((5-(dimethylphosphoryl)-2-methylquinolin-6-yl)amino)pyrimidin-2-yl)amino)-2-ethyl-5-methoxyphenyl)piperidin-4-yl)piperazine-1-carbonyl)pyrrolidin-1-yl)phenyl)piperidine-2,6-dione] |  |  |  | 
